Source: patent publication US20030008903A1, “R-lansoprazole compositions and methods” (Sepracor Inc., priority 1998, published 2003)

Key:
gastric acid secretion = settings: humans; cited from earlier work
serum gastrin = settings: humans, on administration of racemic lansoprazole; cited from earlier work
[1] = system: hepatic drug metabolizing enzyme systems; settings: compared with omeprazole; cited from earlier work
[2] = humans; cited from earlier work
canine parietal cells = settings: isolated canine parietal cells; (+) versus (−) enantiomer; Nagaya et al.; cited from earlier work
[3] = human, in vivo
Text: Utilizing the optically pure or substantially optically pure isomer of (+) lansoprazole results in enhanced efficacy, diminished adverse effects, and accordingly, an improved therapeutic index. […] It is therefore, more desirable to use the (+) isomer of lansoprazole than to administer the racemic mixture because predictability of an effective and safe dose for an individual patient is greater.

Cc1c(OCC(F)(F)F)ccnc1C[S+]([O-])c1nc2ccccc2[nH]1 (racemic) [racemic lansoprazole, 2-[3-methyl-4-(2,2,2-trifluoroethoxy)pyrid-2-yl]methylsulfinyl-benzimidazole]
duration of the acid inhibitory effect (gastric acid secretion): about 24 hours
fasting serum gastrin levels (serum gastrin): significantly elevated
effects on hepatic drug metabolizing enzyme systems [1]: comparable to omeprazole
serum half-life [2]: about 1.5 hours

Cc1c(OCC(F)(F)F)ccnc1C[S@@+]([O-])c1nc2ccccc2[nH]1 (single isomer, unassigned) [R(+) lansoprazole, (+) isomer of 2-[3-methyl-4-(2,2,2-trifluoroethoxy)pyrid-2-yl]methylsulfinyl-benzimidazole]
effects on acid formation stimulated by db-cAMP (canine parietal cells): almost identical
half-life [3]: longer half-life
variation in the patient population between good metabolizers and poor metabolizers [3]: less variation

Cc1c(OCC(F)(F)F)ccnc1C[S+]([O-])c1nc2ccccc2[nH]1 (stereo not drawn) [S(−) lansoprazole]
effects on acid formation stimulated by db-cAMP (canine parietal cells): almost identical
